Experimental data published in ChEMBL document CHEMBL1201862, “PubChem BioAssay data set” (2004).
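Cells were grown in 96-well plates and exposed to each compound for 48 hours at five concentrations; endpoints were interpolated linearly between bracketing concentrations, or set to the highest concentration if not reached. GI50 = concentration required for 50% inhibition of growth.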 Activity calls are given as the source filed them. Rule as the data show it: active = GI50 up to about 1.1 µM and inactive = higher.

Key:
Assay in all cases: inhibition of tumour cell growth, NCI panel, 48 h
OVCAR-3 = test system: OVCAR-3
SW-620 = test system: SW-620
SK-OV-3 = test system: SK-OV-3
OVCAR-5 = test system: OVCAR-5
SK-MEL-2 = test system: SK-MEL-2
HCT-116 = test system: HCT-116
HT-29 = test system: HT-29
UACC-257 = test system: UACC-257
NCI-H522 = test system: NCI-H522
786-0 = test system: 786-0
SNB-19 = test system: SNB-19
SF-268 = test system: SF-268
UACC-62 = test system: UACC-62
HCC 2998 = test system: HCC 2998
SR = test system: SR
EKVX = test system: EKVX
LOX IMVI = test system: LOX IMVI
Malme-3M = test system: Malme-3M
K562 = test system: K562
HL-60 = test system: HL-60

Measured: GI50

CC1(C)Cc2c(oc3ncnc(N)c23)CS1
inactive: OVCAR-3 > 100 µM | SW-620 > 100 µM | SK-OV-3 > 100 µM | OVCAR-5 > 100 µM | SK-MEL-2 > 100 µM | HCT-116 > 100 µM | HT-29 > 100 µM | UACC-257 > 100 µM | NCI-H522 > 100 µM | 786-0 > 100 µM | SNB-19 > 100 µM | SF-268 > 100 µM | UACC-62 > 100 µM | HCC 2998 > 100 µM | SR > 100 µM | EKVX > 100 µM | LOX IMVI > 100 µM | Malme-3M > 100 µM | K562 > 100 µM

c1csc(-c2sc(-c3ccsc3)cc2Cc2ccsc2)c1
inactive: SW-620 > 10 µM | SK-OV-3 > 10 µM | HT-29 > 10 µM | UACC-257 > 10 µM | 786-0 > 10 µM | SF-268 > 10 µM | UACC-62 > 10 µM | HL-60 > 10 µM | HCC 2998 > 10 µM | SR > 10 µM | EKVX > 10 µM | LOX IMVI > 10 µM | Malme-3M > 10 µM | K562 > 10 µM

Oc1cccc(C2SCc3nc4ccccc4n32)c1 (stereo unspecified)
inactive: OVCAR-3 45.6 µM | SW-620 > 100 µM | SK-OV-3 > 100 µM | OVCAR-5 26.2 µM | SK-MEL-2 76 µM | HCT-116 67.9 µM | HT-29 > 100 µM | UACC-257 31.7 µM | NCI-H522 38.3 µM | 786-0 > 100 µM | SNB-19 > 100 µM | SF-268 73.6 µM | UACC-62 77.1 µM | HL-60 25.5 µM | HCC 2998 > 100 µM | SR 48.8 µM | EKVX 43.5 µM | Malme-3M 41.1 µM | K562 16.9 µM

O=c1[nH]nc(Cc2ccccc2)n1O
inactive: OVCAR-3 > 100 µM | SW-620 > 100 µM | SK-OV-3 > 100 µM | SK-MEL-2 > 10 µM | HCT-116 > 100 µM | HT-29 > 100 µM | UACC-257 > 100 µM | NCI-H522 > 100 µM | 786-0 > 100 µM | SNB-19 > 100 µM | SF-268 > 100 µM | UACC-62 > 100 µM | HL-60 > 100 µM | SR > 100 µM | EKVX > 100 µM | LOX IMVI > 100 µM | Malme-3M > 100 µM | K562 > 100 µM

COc1ccc(C(=O)/C=C/c2ccc(OCCSCCCCCCCCCCSCCOc3ccc(/C=C/C(=O)c4ccc(OC)c(OC)c4)cc3)cc2)cc1OC
inactive: SW-620 > 100 µM | SK-OV-3 > 100 µM | HCT-116 > 100 µM | HT-29 > 100 µM | UACC-257 > 100 µM | NCI-H522 73.8 µM | 786-0 > 100 µM | SF-268 > 100 µM | UACC-62 > 100 µM | HL-60 > 100 µM | HCC 2998 > 100 µM | SR > 100 µM | EKVX > 100 µM | LOX IMVI > 100 µM | Malme-3M > 100 µM | K562 > 100 µM

O=C(NN=C1CCN(Cc2ccccc2)CC1)C(O)(c1ccccc1)c1ccccc1
inactive: SW-620 > 100 µM | SK-OV-3 > 100 µM | OVCAR-5 > 100 µM | HCT-116 > 100 µM | HT-29 > 100 µM | UACC-257 > 100 µM | 786-0 > 100 µM | SNB-19 > 100 µM | SF-268 > 100 µM | UACC-62 > 100 µM | HL-60 > 100 µM | HCC 2998 > 100 µM | SR > 100 µM | EKVX > 100 µM | LOX IMVI > 100 µM | Malme-3M > 100 µM

O=C1/C(=C/c2ccccc2)CN(C(=O)Oc2ccccc2)C/C1=C\c1ccccc1
inactive: OVCAR-3 99.5 µM | SW-620 20.2 µM | OVCAR-5 > 100 µM | SK-MEL-2 15.6 µM | HCT-116 6.81 µM | HT-29 > 100 µM | UACC-257 > 100 µM | NCI-H522 23.2 µM | 786-0 10.5 µM | SNB-19 13.2 µM | SF-268 24.5 µM | UACC-62 46.3 µM | HL-60 1.7 µM | SR 7.19 µM | EKVX 62.2 µM | LOX IMVI 5.01 µM | Malme-3M > 100 µM | K562 7.13 µM

CN(C)CCNCCN
inactive: OVCAR-3 > 100 µM | SW-620 > 100 µM | SK-OV-3 > 100 µM | OVCAR-5 > 100 µM | SK-MEL-2 > 100 µM | HCT-116 > 100 µM | HT-29 > 100 µM | UACC-257 > 100 µM | NCI-H522 > 100 µM | 786-0 > 100 µM | SNB-19 > 100 µM | SF-268 > 100 µM | UACC-62 > 100 µM | HL-60 > 100 µM | SR > 100 µM | EKVX > 100 µM | LOX IMVI > 100 µM | Malme-3M > 100 µM | K562 > 100 µM

Cc1ccc(-c2cs/c(=N\c3ccccc3)n2NC(=O)c2ccncc2)cc1
inactive: OVCAR-3 35.6 µM | SW-620 35.8 µM | SK-OV-3 33.7 µM | OVCAR-5 40.8 µM | SK-MEL-2 28.5 µM | HCT-116 31.8 µM | HT-29 21 µM | UACC-257 37.3 µM | 786-0 48 µM | SNB-19 46.8 µM | SF-268 42.1 µM | UACC-62 20.5 µM | HL-60 19.4 µM | HCC 2998 75.2 µM | SR 34.8 µM | EKVX 37.3 µM | LOX IMVI 34.2 µM | Malme-3M 43.3 µM | K562 15 µM

CC(=O)OC12CC[N+]3(C)CCCCC3C1=Nc1ccccc12 (stereo unspecified)
inactive: OVCAR-3 > 100 µM | SW-620 > 100 µM | SK-OV-3 > 100 µM | OVCAR-5 > 100 µM | SK-MEL-2 > 100 µM | HCT-116 > 100 µM | HT-29 63.8 µM | UACC-257 > 100 µM | NCI-H522 > 100 µM | 786-0 > 100 µM | SNB-19 > 100 µM | SF-268 > 100 µM | UACC-62 > 100 µM | HL-60 > 100 µM | SR > 100 µM | EKVX 17.4 µM | LOX IMVI > 100 µM | Malme-3M > 100 µM | K562 > 100 µM

O=[N+]([O-])C(=C(NCc1ccccc1)NCc1ccccc1)C(Cl)=C(Cl)Cl
inactive: OVCAR-3 21.6 µM | SW-620 36.9 µM | SK-OV-3 51.1 µM | HCT-116 30 µM | HT-29 39.5 µM | UACC-257 38.1 µM | NCI-H522 37 µM | 786-0 43.6 µM | SNB-19 28.2 µM | SF-268 20.8 µM | UACC-62 30.9 µM | HL-60 20.2 µM | HCC 2998 40.6 µM | SR 23.8 µM | EKVX 51.3 µM | LOX IMVI 17.4 µM | Malme-3M 19 µM | K562 22.3 µM

Cn1c(=S)c2nc(SCCCc3ccccc3)[nH]c2n(C)c1=O
inactive: OVCAR-3 20.9 µM | SW-620 36.4 µM | SK-OV-3 42.2 µM | OVCAR-5 20.7 µM | SK-MEL-2 40.8 µM | HCT-116 21.8 µM | HT-29 22.8 µM | UACC-257 8.24 µM | NCI-H522 4.33 µM | 786-0 25.1 µM | SNB-19 16.6 µM | SF-268 32.5 µM | UACC-62 26.2 µM | HL-60 18.2 µM | SR 4.85 µM | EKVX 13.7 µM | LOX IMVI 27.5 µM | Malme-3M 62.1 µM | K562 19.7 µM

OCC(O)C(OC1OC(CO)C(O)C(O)C1O)c1nn(-c2ccc(Cl)cc2)c2nc3cc(Cl)ccc3nc12 (stereo unspecified)
inactive: OVCAR-3 > 100 µM | SK-OV-3 > 100 µM | OVCAR-5 > 100 µM | HCT-116 > 100 µM | HT-29 > 100 µM | UACC-257 > 100 µM | NCI-H522 > 100 µM | 786-0 > 100 µM | SNB-19 > 100 µM | SF-268 > 100 µM | UACC-62 > 100 µM | HCC 2998 > 100 µM | SR > 100 µM | EKVX > 100 µM | LOX IMVI > 100 µM | Malme-3M > 100 µM | K562 > 100 µM

O=C1C=C(c2ccccc2)NC1(c1ccccc1)c1cc(-c2ccccc2)[nH]c1-c1ccccc1 (stereo unspecified)
inactive: OVCAR-3 > 100 µM | SW-620 > 100 µM | SK-OV-3 > 100 µM | SK-MEL-2 > 100 µM | HCT-116 > 100 µM | HT-29 > 100 µM | UACC-257 > 100 µM | 786-0 > 100 µM | SNB-19 > 100 µM | UACC-62 > 100 µM | HL-60 > 100 µM | HCC 2998 > 100 µM | SR > 100 µM | EKVX > 100 µM | K562 > 100 µM

CN(C)Cc1cc(C(=O)/C=C/c2ccc(Cl)cc2Cl)cc(CN(C)C)c1O
inactive: OVCAR-3 2.99 µM | SW-620 2.81 µM | OVCAR-5 15.2 µM | HCT-116 3.07 µM | HT-29 2.07 µM | UACC-257 5.11 µM | NCI-H522 2.56 µM | 786-0 3.77 µM | SNB-19 4.12 µM | SF-268 3.88 µM | HL-60 1.96 µM | HCC 2998 5.89 µM | SR 4.03 µM | EKVX 6.18 µM | LOX IMVI 1.2 µM | Malme-3M 8.85 µM | K562 1.48 µM

CCC1(c2ccc(OC)c(OC)c2)CCN2C(=O)C(O)CC21 (stereo unspecified)
inactive: OVCAR-3 > 100 µM | SW-620 > 100 µM | SK-OV-3 > 100 µM | OVCAR-5 > 100 µM | SK-MEL-2 > 100 µM | HCT-116 > 100 µM | HT-29 > 100 µM | UACC-257 > 100 µM | NCI-H522 > 100 µM | 786-0 > 100 µM | SNB-19 > 100 µM | SF-268 > 100 µM | UACC-62 > 100 µM | HCC 2998 > 100 µM | SR > 100 µM | EKVX > 100 µM | LOX IMVI > 100 µM | K562 > 100 µM
